Assay results as given in patent US11040053B2, “Compositions and methods for activating “stimulator of interferon gene”13 dependent signalling” (CHINOOK THERAPEUTICS, INC., priority 2015, dated 2021).

Legend:
[1] = molecular target: T1, HAQ allele hSTING (Homo sapiens, UniProt Q86WV6, G230A/H232R/R293Q); assay: Differential scanning fluorometry (DSF) binding to purified hSTING HAQ allele; conditions: DSF, 1 mg/ml STING AA140-379, ligand 1 mM
T1 construct: DNA encoding amino acids 140-379 (amino acid numbering corresponding to Swiss Prot Q86WV6); 6xHIS (N, cleaved yes); SUMO (N, cleaved yes); made in house; host or cells: Rosetta2 (DE3) E. coli
Method: (§1) Cells were grown in lysogeny broth at 37° C. until a […] absorbance of 0.6 was reached. […] Cell pellets were re-suspended on ice in a buffer containing 50 mM Tris hydrochloride (Tris-HCl) pH 7.5, 500 mM sodium chloride (NaCl), 20 mM imidazole, 10% glycerol, 1 mM tris(2-carboxyethyl)phosphine hydrochloride (TCEP) and protease inhibitor tablet (Pierce) (Buffer A). Cells were lysed using an S-450D sonifier (Emmerson industrial) on ice. […] Protein was aliquoted, flash frozen in liquid nitrogen and stored at −80° C. until use.
(§2) The protein is heated in the presence of a dye that binds to and fluoresces in hydrophobic environments. The protein is thermally denatured by heating resulting in increased dye binding to the unfolded protein and fluorescence. The temperature midpoint (Tm) of a proteins denaturation is established by calculating the half maximal value of the denaturation curve. The temperature midpoint of the protein in the presence of a ligand is directly related to the affinity of the ligand for the protein and therefore its ability to stabilize the protein at higher temperatures.
(§3) Samples were placed in hard shell PCR plate (Bio-Rad). The fluorescence as a function of temperature was recorded in a CFX 96 real time PCR machine (Bio-Rad) reading on the HEX channel, excitation 450-490, emission 560-580 nm. The temperature gradient was from 15-80° C. ramping 0.5° C. per 15 seconds and recording every 0.5° C. After subtraction of the background signal from a sample lacking protein and ligand. The midpoint temperature (Tm) was calculated by fitting the curves of the fluorescence as a function of temperature to a Boltzmann sigmoidal function (Graph Pad Prism).

[2] = molecular target: hSTING(REF) (Homo sapiens, UniProt Q86WV6); assay: Differential scanning fluorometry (DSF) binding to purified hSTING REF allele; set-up: DNA encoding amino acids 140-379 (amino acid numbering corresponding to Swiss Prot Q86WV6); 6xHIS (N, cleaved yes); SUMO (N, cleaved yes); made in house; host or cells: Rosetta2 (DE3) E. coli; conditions: for hSTING Tm Shift REF: DSF, 1 mg/ml STING AA140-379, ligand 1 mM; for binding relative to OH reference compound, in words: Table 4 comment, REF allele hSTING
Method: as §1, §2, §3

[3] = molecular target: T2, human-STING(E149-S379)H232R protein (Homo sapiens, UniProt Q86WV6, H232R); assay: Surface Plasmon Resonance binding to hSTING WT; conditions: Biacore T200, 15° C., steady-state analysis
T2 construct: His6 (C); made in house; host or cells: E. coli
Method: Binding of the mono- and di-F CDN compounds was assessed using Surface Plasmon Resononce to determine a binding constant. An E. coli expression construct (human-STING[E149-S379]H232R) was prepared harboring the protein sequence:
Aliquots were prepared and stored at −80° C. in 30 mM Tris pH 7.5/100 mM NaCl/10% glycerol.
N-terminal avi-tagged human-STING(E149-S379)H232R protein was immobilized (2500 RUs) on a streptavidin chip at 15° C. in a Biacore T200 (GE Healthcare). Titrations of cyclic dinucleotides (CDNs as indicated in Table 6) in 30 mM Tris pH 7.5/50 mM NaCL/0.005% Tween 20/1 mM DTT/2% DMSO, were profiled (30 μLs/min, 180 seconds for sample contact/120 seconds for dissociation) against hSTING at 15° C. Kinetic analysis of the data was performed using Biacore T200 Evaluation software. Steady-state analysis of the data was performed using Graphpad Prism 6.0 software, using one site-specific binding algorithm (Equation is Y=Bmax*X/(Kd+X)).

[4] = molecular target: hSTING(WT) (Homo sapiens, UniProt Q86WV6, H232R); assay: Differential scanning fluorometry (DSF) binding to purified hSTING WT; set-up: DNA encoding amino acids 140-379 (amino acid numbering corresponding to Swiss Prot Q86WV6); 6xHIS (N, cleaved yes); SUMO (N, cleaved yes); made in house; host or cells: Rosetta2 (DE3) E. coli; conditions: DSF, 1 mg/ml STING AA140-379, ligand 1 mM
Method: as §1, §2, §3

[5] = molecular target: T3, hSTING HAQ allele (Homo sapiens, UniProt Q86WV6, G230A/H232R/R293Q/R71H); assay: IRF-3 inducible secreted luciferase reporter in THP1-Dual cells without digitonin; assay type: cell-based; conditions: for activity relative to OH reference compound, in words: Table 5 comment, THP1 cells without digitonin; for EC50: without digitonin in THP1 cells (HAQ allele)
T3 construct: a human monocyte cell line containing the hSTING HAQ allele; host or cells: THP1-Dual cells
Method: After 30 minutes, cells were washed and fresh RPMI media containing 10% FBS was added, and cells were incubated at 37° C. with 5% CO2 Cell culture supernatants from each sample were collected after overnight incubation, and 10 μL of the cell culture supernatants was added to 50 μL QUANTI-Luc reagent (Invivogen). Type I interferon activation was determined by measuring secreted luciferase levels on a SpectraMax M3 spectrophotometer (Molecular Devices). The EC50 value was determined from the dose-response curve for the 10 concentrations from the serial dilution of the reference compounds and compounds of the invention tested in this assay as listed in Table 5.

T3 sequence (Q86WV6 whole entry R71H/G230A/H232R/R293Q): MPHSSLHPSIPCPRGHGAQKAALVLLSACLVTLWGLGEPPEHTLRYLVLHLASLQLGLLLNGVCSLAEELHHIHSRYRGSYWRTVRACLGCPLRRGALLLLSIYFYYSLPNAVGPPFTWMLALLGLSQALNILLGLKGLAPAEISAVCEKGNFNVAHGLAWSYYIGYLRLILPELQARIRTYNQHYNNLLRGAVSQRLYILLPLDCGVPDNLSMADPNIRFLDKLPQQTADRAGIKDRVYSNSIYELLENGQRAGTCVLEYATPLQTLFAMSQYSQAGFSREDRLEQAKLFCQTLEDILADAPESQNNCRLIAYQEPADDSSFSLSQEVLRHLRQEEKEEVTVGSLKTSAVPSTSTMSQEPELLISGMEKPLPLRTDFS
Sequence of hSTING(WT) (Q86WV6 140-379 H232R): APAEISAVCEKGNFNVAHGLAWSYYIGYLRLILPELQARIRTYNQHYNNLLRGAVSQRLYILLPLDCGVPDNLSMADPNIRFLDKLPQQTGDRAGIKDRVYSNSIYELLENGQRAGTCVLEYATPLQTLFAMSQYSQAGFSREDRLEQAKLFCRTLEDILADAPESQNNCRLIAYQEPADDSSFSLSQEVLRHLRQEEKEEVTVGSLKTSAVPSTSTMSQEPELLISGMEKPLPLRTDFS
Sequence of hSTING(REF) (Q86WV6 140-379): as the sequence (Q86WV6 140-379 H232R) above, with R93H counted along it
T1 sequence (Q86WV6 140-379 G230A/H232R/R293Q limits assumed): as the sequence (Q86WV6 140-379 H232R) above, with G91A, R154Q counted along it
T2 sequence (Q86WV6 with tags, fused parts or gaps H232R): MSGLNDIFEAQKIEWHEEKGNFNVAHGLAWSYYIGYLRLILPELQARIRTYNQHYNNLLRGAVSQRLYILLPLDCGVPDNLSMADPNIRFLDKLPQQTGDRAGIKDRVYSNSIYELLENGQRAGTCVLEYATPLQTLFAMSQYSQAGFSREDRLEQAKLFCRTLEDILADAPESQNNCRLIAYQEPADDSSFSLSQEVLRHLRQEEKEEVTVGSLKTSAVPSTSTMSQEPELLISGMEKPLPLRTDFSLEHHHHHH

hSTING Tm Shift HAQ [1] [°C]	hSTING Tm Shift REF [2] [°C]	Kd [3] [µM]	hSTING Tm Shift WT [4] [°C]	activity relative to OH reference compound, in words [5]	EC50 [5] [µM]	binding relative to OH reference compound, in words [2]	SMILES
20.6	6.4	0.011	12.6	–	–	–	Nc1ncnc2c1ncn2[C@@H]1O[C@@H]2COP(=O)(O)O[C@H]3[C@@H](F)[C@H](n4cnc5c(N)ncnc54)O[C@@H]3COP(=O)(O)O[C@H]2[C@H]1F [3'3'-(2'F-A)(2'F-A), reference compound]
–	–	0.029	–	improved activity	8	–	Nc1ncnc2c1ncn2[C@@H]1O[C@@H]2CO[P@@](=O)(S)O[C@H]3[C@@H](F)[C@H](n4cnc5c(N)ncnc54)O[C@@H]3CO[P@](=O)(S)O[C@H]2[C@H]1F [Compound 6a, (2R,3R,3aR,5R,7aR,9R,10R,10aR,12S,14aR)-2,9-bis(6-amino-9H-purin-9-yl)-3,10-difluoro-5,12-dimercaptooctahydro-2H,7H-difuro [3,2-d:3′,2′-j][1,3,7,9]tetraoxa[2,8]diphosphacyclododecine 5,12-dioxide]
–	–	0.098	–	improved activity	18	–	Nc1nc2c(ncn2[C@@H]2O[C@@H]3CO[P@](=O)(S)O[C@H]4[C@@H](F)[C@H](n5cnc6c(N)ncnc65)O[C@@H]4CO[P@@](=O)(S)O[C@H]3[C@H]2F)c(=O)[nH]1 [Compound 14a, 2-amino-9-((2R,3R,3aR,5R,7aR,9R,10R,10aR,12S,14aR)-9-(6-amino-9H-purin-9-yl)-3,10-difluoro-5,12-dimercapto-5,12-dioxidooctahydro-2H,7H-difuro [3,2-d:3′,2′-j][1,3,7,9]tetraoxa[2,8]diphosphacyclododecin-2-yl)-1,9-dihydro-6H-purin-6-one]
15.3	7.0	0.684	9.3	–	89	–	Nc1nc2c(ncn2[C@@H]2O[C@@H]3CO[P@](=O)(S)O[C@H]4[C@@H](F)[C@H](n5cnc6c(N)ncnc65)O[C@@H]4CO[P@@](=O)(S)O[C@H]3[C@H]2O)c(=O)[nH]1 [Compound 24a, 2-amino-9-((2R,3R,3aS,5R,7aR,9R,10R,10aR,12S,14aR)-9-(6-amino-9H-purin-9-yl)-10-fluoro-3-hydroxy-5,12-dimercapto-5,12-dioxidooctahydro-2H,7H-difuro[3,2-d:3′,2′-j][1,3,7,9]tetraoxa[2,8]diphosphacyclododecin-2-yl)-1,9-dihydro-6H-purin-6-one]
18.4	10.5	–	13.3	improved activity	23	improved binding	CC(C)C(=O)Nc1nc2c(ncn2[C@@H]2O[C@@H]3CO[P@@](=O)(S)O[C@H]4[C@@H](F)[C@H](n5cnc6c(N)ncnc65)O[C@@H]4CO[P@@](=O)(S)O[C@H]3[C@H]2F)c(=O)[nH]1 [Compound 26, N-(9-((2R,3R,3aR,5R,7aR,9R,10R,10aR,12R,14aR)-9-(6-amino-9H-purin-9-yl)-3,10-difluoro-5,12-dimercapto-5,12-dioxidooctahydro-2H,7H-difuro[3,2-d:3′,2′-j][1,3,7,9]tetraoxa[2,8]diphosphacyclododecin-2-yl)-6-oxo-6,9-dihydro-1H-purin-2-yl)isobutyramide]
10.1	8.7	–	8.9	–	> 150	improved binding	O=C(Nc1ncnc2c1ncn2[C@@H]1O[C@@H]2CO[P@@](=O)(S)O[C@H]3[C@@H](F)[C@H](n4cnc5c(NC(=O)c6ccccc6)ncnc54)O[C@@H]3CO[P@@](=O)(S)O[C@H]2[C@H]1F)c1ccccc1 [Compound 27, N,N′-(((2R,3R,3aR,5R,7aR,9R,10R,10aR,12R,14aR)-3,10-difluoro-5,12-dimercapto-5,12-dioxidooctahydro-2H,7H-difuro [3,2-d:3′,2′-j][1,3,7,9]tetraoxa[2,8]diphosphacyclododecine-2,9-diyl)bis(9H-purine-9,6-diyl))dibenzamide]
27.7	7.8	–	14.3	–	10	–	Nc1nc2c(ncn2[C@@H]2O[C@@H]3COP(=O)(O)O[C@H]4[C@@H](F)[C@H](n5cnc6c(N)ncnc65)O[C@@H]4COP(=O)(O)O[C@H]3[C@H]2F)c(=O)[nH]1 [Compound 30, 2-amino-9-((2R,3R,3aR,7aR,9R,10R,10aR,14aR)-9-(6-amino-9H-purin-9-yl)-3,10-difluoro-5,12-dihydroxy-5,12-dioxidooctahydro-2H,7H-difuro[3,2-d:3′,2′-j][1,3,7,9]tetraoxa[2,8]diphosphacyclododecin-2-yl)-1,9-dihydro-6H-purin-6-one]

SMILES	hSTING Tm Shift HAQ [1] [°C]	hSTING Tm Shift REF [2] [°C]	Kd [3] [µM]	hSTING Tm Shift WT [4] [°C]	activity relative to OH reference compound, in words [5]	EC50 [5] [µM]	binding relative to OH reference compound, in words [2]
Nc1nc2c(ncn2[C@@H]2O[C@@H]3CO[P@@](=O)(S)O[C@H]4[C@@H](F)[C@H](n5cnc6c(N)ncnc65)O[C@@H]4CO[P@@](=O)(S)O[C@H]3[C@H]2F)c(=O)[nH]1 [Compound 14, 2-Amino-9-((2R,3R,3aR,5R,7aR,9R,10R,10aR,12R,14aR)-9-(6-amino-9H-purin-9-yl)-3,10-difluoro-5,12-dimercapto-5,12-dioxidooctahydro-2H,7H-difuro [3,2-d:3′,2′-j][1,3,7,9]tetraoxa[2,8]diphosphacyclododecin-2-yl)-1,9-dihydro-6H-purin-6-one]	34.2	12.5	0.093	19.3	–	3	–
